PubChem BioAssay AID1195 (EPA DSSTox, 2008)

Tested on: human maximum recommended daily dose, FDA database
Assay: DSSTox (FDAMDD) FDA Maximum (Recommended) Daily Dose Database
Conditions: stronger effect = lower value
In short: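 MRDD values come from clinical trials with daily oral dosing, usually for 3–12 months, for the average adult, in mg/day converted to mg/kg-bw/day assuming 60 kg. Antineoplastic mg/m2 doses are divided by 37. Activity score maps log10(1/MRDD mmol) onto 1–100.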

[1] = TherapeuticCategory: antibacterial
[2] = TherapeuticCategory: antihypertensive
[3] = TherapeuticCategory: pigmentation agent
[4] = TherapeuticCategory: cardiotonic

COc1ccc2c3c1O[C@H]1C(=O)CC[C@H]4[C@@H](C2)N(C)CC[C@]314
maximum recommended daily dose (mmol/kg-bw/day) (TherapeuticCategory: analgesic): 0.00251

CN(C)[C@@H]1C(=O)C(C(N)=O)=C(O)[C@@]2(O)C(=O)C3=C(O)c4c(O)ccc(Cl)c4[C@@H](O)[C@H]3C[C@@H]12
maximum recommended daily dose (mmol/kg-bw/day) [1]: 0.0323

CCCc1nc2c(C)cc(-c3nc4ccccc4n3C)cc2n1Cc1ccc(-c2ccccc2C(=O)O)cc1
maximum recommended daily dose (mmol/kg-bw/day) [2]: 0.00258

CCN(CC)CCSC(=O)C(c1ccccc1)c1ccccc1
maximum recommended daily dose (mmol/kg-bw/day) (TherapeuticCategory: anticholinergic, smooth muscle relaxant): 0.0153

Cc1cc2cc3c(C)cc(=O)oc3c(C)c2o1
maximum recommended daily dose (mmol/kg-bw/day) [3]: 0.000732

CCN(CC)C(=S)SSC(=S)N(CC)CC
maximum recommended daily dose (mmol/kg-bw/day) (TherapeuticCategory: alcohol deterrent): 0.0281

CC(CC1c2ccccc2CCc2ccccc21)CN(C)C (centres undefined)
maximum recommended daily dose (mmol/kg-bw/day) (TherapeuticCategory: antidepressant): 0.00852

O=C(CCCN1CCC(n2c(=S)[nH]c3ccccc32)CC1)c1ccc(F)cc1
maximum recommended daily dose (mmol/kg-bw/day) (TherapeuticCategory: antipsychotic): 0.000503

CN1C(=O)CN=C(c2ccccc2F)c2cc([N+](=O)[O-])ccc21
maximum recommended daily dose (mmol/kg-bw/day) (TherapeuticCategory: hypnotic): 0.000106

Cn1c(=O)c2c(ncn2CCOC(=O)C(C)(C)Oc2ccc(Cl)cc2)n(C)c1=O
maximum recommended daily dose (mmol/kg-bw/day) (TherapeuticCategory: bronchodilator): 0.0297

CC[N+]1(C)CCCC(OC(=O)C(O)(c2ccccc2)c2ccccc2)C1 (centres undefined)
maximum recommended daily dose (mmol/kg-bw/day) (TherapeuticCategory: anticholinergic): 0.000576

CCCN1C[C@H](CSC)C[C@@H]2c3cccc4[nH]cc(c34)C[C@H]21
maximum recommended daily dose (mmol/kg-bw/day) (TherapeuticCategory: antiparkinsonian, dopamine receptor agonist): 0.000159

CC[C@H](C)C(=O)O[C@H]1C[C@H](O)C=C2C=C[C@H](C)[C@H](CC[C@@H](O)C[C@@H](O)CC(=O)O)[C@H]21
maximum recommended daily dose (mmol/kg-bw/day) (TherapeuticCategory: antihyperlipoproteinemic): 0.00157

CC(=O)Nc1ccc(/C=N/NC(N)=S)cc1
maximum recommended daily dose (mmol/kg-bw/day) [1]: 0.0106

C[C@]12CC[C@@H]3c4ccc(OS(=O)(=O)O)cc4CC[C@H]3[C@@H]1CCC2=O
maximum recommended daily dose (mmol/kg-bw/day) (TherapeuticCategory: estrogen): 0.000107

CCOC(=O)[C@H](CCc1ccccc1)N[C@@H](C)C(=O)N1Cc2ccccc2C[C@H]1C(=O)O
maximum recommended daily dose (mmol/kg-bw/day) (TherapeuticCategory: antihypertensive, ACE inhibitor): 0.00303

CC(=O)OCC1=C(C(=O)O)N2C(=O)[C@@H](NC(=O)[C@H](N)c3ccccc3)[C@H]2SC1
maximum recommended daily dose (mmol/kg-bw/day) [1]: 0.0821

O=C1NC(=O)[C@@]2(CCOc3ccc(F)cc32)N1
maximum recommended daily dose (mmol/kg-bw/day) (TherapeuticCategory: none): 0.0177

CO[C@@H]1[C@@H](O[C@@H]2O[C@H](C)[C@@H](O[C@H]3C[C@@](C)(O)[C@@H](O)[C@H](C)O3)[C@H](N(C)C)[C@H]2O)[C@@H](CC=O)C[C@@H](C)[C@@H](O[C@@H]2CC[C@H](N(C)C)[C@@H](C)O2)/C=C/C=C/C[C@@H](C)OC(=O)C[C@H]1O
maximum recommended daily dose (mmol/kg-bw/day) [1]: 0.0791

NC(N)=NC(N)=NCCc1ccccc1
maximum recommended daily dose (mmol/kg-bw/day) (TherapeuticCategory: antidiabetic): 0.00814

Nc1nc2c(c(=O)[nH]1)N(C=O)C(CNc1ccc(C(=O)NC(CCC(=O)O)C(=O)O)cc1)CN2 (centres undefined)
maximum recommended daily dose (mmol/kg-bw/day) (TherapeuticCategory: antidote to folic acid antagonists, antianemic): 0.0114

CC(=O)O[C@H]1C[C@H](O[C@H]2[C@@H](O)C[C@H](O[C@H]3[C@@H](O)C[C@H](O[C@H]4CC[C@@]5(C)[C@H](CC[C@@H]6[C@@H]5CC[C@]5(C)[C@@H](C7=CC(=O)OC7)CC[C@]65O)C4)O[C@@H]3C)O[C@@H]2C)O[C@H](C)[C@H]1O
maximum recommended daily dose (mmol/kg-bw/day) [4]: 4.13e-06

O=C1C(O)N=C(c2ccccc2F)c2cc(Cl)ccc2N1CCO (centres undefined)
maximum recommended daily dose (mmol/kg-bw/day) (TherapeuticCategory: sedative, hypnotic): 0.000955

CC(=O)N(c1onc(C)c1C)S(=O)(=O)c1ccc(N)cc1
maximum recommended daily dose (mmol/kg-bw/day) [1]: 0.216

C[C@H]1O[C@@H](O[C@H]2[C@@H](O)C[C@H](O[C@H]3[C@@H](O)C[C@H](O[C@H]4CC[C@@]5(C)[C@H](CC[C@@H]6[C@@H]5CC[C@]5(C)[C@@H](C7=CC(=O)OC7)CC[C@]65O)C4)O[C@@H]3C)O[C@@H]2C)C[C@H](O)[C@@H]1O
maximum recommended daily dose (mmol/kg-bw/day) [4]: 2.61e-08

COc1c2occc2cc2ccc(=O)oc12
maximum recommended daily dose (mmol/kg-bw/day) [3]: 0.00278

O=C(O)c1c(Cl)c(Cl)c(Cl)c(Cl)c1-c1c2cc(I)c(=O)c(I)c-2oc2c(I)c(O)c(I)cc12
maximum recommended daily dose (mmol/kg-bw/day) (TherapeuticCategory: diagnostic aid): 0.00197

O=C1O[C@H]([C@@H](O)CO)C(O)=C1O
maximum recommended daily dose (mmol/kg-bw/day) (TherapeuticCategory: vitamin C deficiency): 0.568

CC1CCCC(C)N1NC(=O)c1ccc(Cl)c(S(N)(=O)=O)c1 (centres undefined)
maximum recommended daily dose (mmol/kg-bw/day) (TherapeuticCategory: antihypertensive, diuretic): 0.00289

Cc1onc(-c2ccccc2)c1C(=O)N[C@@H]1C(=O)N2[C@@H]1SC(C)(C)[C@@H]2C(=O)O
maximum recommended daily dose (mmol/kg-bw/day) [1]: 0.249

CCOC(=O)Oc1c(OC)cc(C(=O)O[C@@H]2C[C@@H]3CN4CCc5c([nH]c6cc(OC)ccc56)[C@H]4C[C@@H]3[C@H](C(=O)OC)[C@H]2OC)cc1OC
maximum recommended daily dose (mmol/kg-bw/day) [2]: 7.5e-05

C=C1C[C@@H]2[C@H](CC[C@]3(C)C(=O)CC[C@@H]23)[C@@]2(C)C=CC(=O)C=C12
maximum recommended daily dose (mmol/kg-bw/day) (TherapeuticCategory: antineoplastic): 0.00135

OCCN(CCO)c1nc(-c2ccccc2)c(-c2ccccc2)o1
maximum recommended daily dose (mmol/kg-bw/day) (TherapeuticCategory: anti inflammatory): 0.0617

CC(=O)O[C@]1(C(C)=O)CC[C@H]2[C@@H]3C=C(Cl)C4=CC(=O)CC[C@]4(C)[C@H]3CC[C@@]21C
maximum recommended daily dose (mmol/kg-bw/day) (TherapeuticCategory: progestogen, antineoplastic): 8.22e-05
